≈ marks a conversion by molar mass, not a printed value.
Columns and labels:
Assay type in all cases: functional
[1] = system: Candida albicans; assay: microbe, parasite or virus in culture; details: IAM 4888, 24 h
Description: Antifungal activity against Candida albicans IAM 4888 after 24 hrs in Sabouraud agar medium by agar dilution method

[2] = system: Candida albicans; assay: microbe, parasite or virus in culture; details: IAM 4888, 24 h; remark: listed apart in the source
Description: Antifungal activity against Candida albicans IAM 4888 after 24 hrs in Yeast morphology agar medium by agar dilution method

[3] = system: Candida albicans; assay: microbe, parasite or virus in culture; details: NHL 4019, 24 h
Description: Antifungal activity against Candida albicans NHL 4019 after 24 hrs in Sabouraud agar medium by agar dilution method

[4] = system: Candida albicans; assay: microbe, parasite or virus in culture; details: NHL 4019, 24 h; remark: listed apart in the source
Description: Antifungal activity against Candida albicans NHL 4019 after 24 hrs in Yeast morphology agar medium by agar dilution method

[5] = system: Meyerozyma guilliermondii; assay: Antifungal activity against Candida guilliermondii JTD after 24 hrs in Sabouraud agar medium by agar dilution method
[6] = system: Meyerozyma guilliermondii; assay: Antifungal activity against Candida guilliermondii JTD after 24 hrs in Yeast morphology agar medium by agar dilution method
[7] = system: Pichia kudriavzevii; assay: microbe, parasite or virus in culture; details: IAM 4801, 24 h
Description: Antifungal activity against Candida krusei IAM 4801 after 24 hrs in Sabouraud agar medium by agar dilution method

[8] = system: Pichia kudriavzevii; assay: microbe, parasite or virus in culture; details: IAM 4801, 24 h; remark: listed apart in the source
Description: Antifungal activity against Candida krusei IAM 4801 after 24 hrs in Yeast morphology agar medium by agar dilution method

[9] = system: Candida tropicalis; assay: microbe, parasite or virus in culture; details: IAM 4924, 24 h
Description: Antifungal activity against Candida tropicalis IAM 4924 after 24 hrs in Sabouraud agar medium by agar dilution method

[10] = system: Candida tropicalis; assay: microbe, parasite or virus in culture; details: IAM 4924, 24 h; remark: listed apart in the source
Description: Antifungal activity against Candida tropicalis IAM 4924 after 24 hrs in Yeast morphology agar medium by agar dilution method

[11] = system: Candida albicans; assay: Antifungal activity against Candida albicans MCNH1 after 24 hrs in Sabouraud agar medium by agar dilution method; details: MCNH1, 24 h
[12] = system: Candida albicans; assay: Antifungal activity against Candida albicans MCNH1 after 24 hrs in Yeast morphology agar medium by agar dilution method; details: MCNH1, 24 h
[13] = system: Candida albicans; assay: Antifungal activity against Candida albicans MCNH2 after 24 hrs in Sabouraud agar medium by agar dilution method; details: MCNH2, 24 h
[14] = system: Candida albicans; assay: Antifungal activity against Candida albicans MCNH2 after 24 hrs in Yeast morphology agar medium by agar dilution method; details: MCNH2, 24 h
[15] = system: Candida albicans; assay: Antifungal activity against Candida albicans MCNH3 after 24 hrs in Sabouraud agar medium by agar dilution method; details: MCNH3, 24 h
[16] = system: Candida albicans; assay: Antifungal activity against Candida albicans MCNH3 after 24 hrs in Yeast morphology agar medium by agar dilution method; details: MCNH3, 24 h
[17] = system: Candida albicans; assay: Antifungal activity against Candida albicans MCNH4 after 24 hrs in Sabouraud agar medium by agar dilution method; details: MCNH4, 24 h
[18] = system: Candida albicans; assay: Antifungal activity against Candida albicans MCNH4 after 24 hrs in Yeast morphology agar medium by agar dilution method; details: MCNH4, 24 h
[19] = system: Saccharomyces cerevisiae; assay: Antifungal activity against Saccharomyces cerevisiae IAM 4500 after 24 hrs in Sabouraud agar medium by agar dilution method; details: IAM 4500, 24 h
[20] = system: Saccharomyces cerevisiae; assay: Antifungal activity against Saccharomyces cerevisiae IAM 4500 after 24 hrs in Yeast morphology agar medium by agar dilution method; details: IAM 4500, 24 h
[21] = system: Saccharomyces cerevisiae; assay: microbe, parasite or virus in culture; details: IAM 4203, 24 h
Description: Antifungal activity against Saccharomyces cerevisiae IAM 4203 after 24 hrs in Sabouraud agar medium by agar dilution method

[22] = system: Saccharomyces cerevisiae; assay: microbe, parasite or virus in culture; details: IAM 4203, 24 h; remark: listed apart in the source
Description: Antifungal activity against Saccharomyces cerevisiae IAM 4203 after 24 hrs in Yeast morphology agar medium by agar dilution method

[23] = system: Nakaseomyces glabratus; assay: microbe, parasite or virus in culture; details: OUT 6189, 24 h
Description: Antifungal activity against Torulopsis glabrata OUT 6189 after 24 hrs in Sabouraud agar medium by agar dilution method

[24] = system: Aspergillus fumigatus; assay: Antifungal activity against Aspergillus fumigatus IAM 2400 after 24 hrs in Sabouraud agar medium by agar dilution method; details: IAM 2400, 24 h
[25] = system: Aspergillus fumigatus; assay: Antifungal activity against Aspergillus fumigatus IAM 2400 after 24 hrs in Yeast morphology agar medium by agar dilution method; details: IAM 2400, 24 h
[26] = system: Aspergillus niger; assay: Antifungal activity against Aspergillus niger NHL after 24 hrs in Sabouraud agar medium by agar dilution method
[27] = system: Aspergillus niger; assay: Antifungal activity against Aspergillus niger NHL after 24 hrs in Yeast morphology agar medium by agar dilution method
[28] = system: Rhizopus arrhizus; assay: microbe, parasite or virus in culture; details: IAM 6052, 24 h
Description: Antifungal activity against Rhizopus arrhizus IAM 6052 after 24 hrs in Yeast morphology agar medium by agar dilution method

[29] = system: Rhizopus arrhizus; assay: microbe, parasite or virus in culture; details: IAM 6052, 24 h; remark: listed apart in the source
Description: Antifungal activity against Rhizopus arrhizus IAM 6052 after 24 hrs in Sabouraud agar medium by agar dilution method

SMILES | MIC [1] [µg/mL] | MIC [2] [µg/mL] | MIC [3] [µg/mL] | MIC [4] [µg/mL] | MIC [5] [µg/mL] | MIC [6] [µg/mL] | MIC [7] [µg/mL] | MIC [8] [µg/mL] | MIC [9] [µg/mL] | MIC [10] [µg/mL] | MIC [11] [µg/mL] | MIC [12] [µg/mL] | MIC [13] [µg/mL] | MIC [14] [µg/mL] | MIC [15] [µg/mL] | MIC [16] [µg/mL] | MIC [17] [µg/mL] | MIC [18] [µg/mL] | MIC [19] [µg/mL] | MIC [20] [µg/mL] | further results
CC1=CC[C@@]2(C)C[C@H](O)[C@@](O)(C(C)C)[C@@H]2CC1 | 12.5 (≈ 52.4 µM) | 1.56 (≈ 6.54 µM) | 0.8 (≈ 3.36 µM) | 0.4 (≈ 1.68 µM) | > 100 | > 100 | 25 (≈ 105 µM) | 25 (≈ 105 µM) | > 100 | 50 (≈ 210 µM) | 6.25 (≈ 26.2 µM) | 3.13 (≈ 13.1 µM) | 3.13 (≈ 13.1 µM) | 1.56 (≈ 6.54 µM) | 12.5 (≈ 52.4 µM) | 3.13 (≈ 13.1 µM) | 6.25 (≈ 26.2 µM) | 1.56 (≈ 6.54 µM) | > 100 | > 100 | MIC [21]: 3.13 µg/mL (≈ 13.1 µM); MIC [22]: 1.56 µg/mL (≈ 6.54 µM); MIC [23]: 50 µg/mL (≈ 210 µM); MIC [24]: 25 µg/mL (≈ 105 µM); MIC [25]: 12.5 µg/mL (≈ 52.4 µM); MIC [26]: 100 µg/mL (≈ 420 µM); MIC [27]: 12.5 µg/mL (≈ 52.4 µM); MIC [28]: > 100 µg/mL; MIC [29]: > 100 µg/mL
Clc1ccc(COC(Cn2ccnc2)c2ccc(Cl)cc2Cl)c(Cl)c1.O=[N+]([O-])O (stereo not drawn) [MICONAZOLE NITRATE] | 6.25 | 3.13 | 0.05 | < 0.05 | 6.25 | 3.13 | 0.8 | 0.8 | 12.5 | 6.25 | 12.5 | 12.5 | 6.25 | 12.5 | 3.13 | 12.5 | 6.25 | 6.25 | 3.13 | 12.5 | MIC [21]: 6.25 µg/mL; MIC [22]: 1.56 µg/mL; MIC [23]: 6.25 µg/mL; MIC [24]: 0.8 µg/mL; MIC [25]: 1.56 µg/mL; MIC [26]: 3.13 µg/mL; MIC [27]: 3.13 µg/mL; MIC [28]: 0.2 µg/mL; MIC [29]: 0.4 µg/mL

— ChEMBL document CHEMBL1150184, “CAF-603: a new antifungal carotane sesquiterpene. Isolation and structure elucidation” (1990)
